Data published in ChEMBL document CHEMBL5212743, “Selectivity Literature for EUbOPEN Chemogenomics Library wave 3” (2023).
Each block holds one compound with its values, some of them ahead of it.

Tests used:
[1] = test system: T1, Receptor-type tyrosine-protein kinase FLT3 (Homo sapiens), P36888 [D835V]; experiment: Selectivity interaction (KinomeScan (DiscoverX)) EUB0000305b FLT3; details: at 100 nM
T1 sequence (whole entry): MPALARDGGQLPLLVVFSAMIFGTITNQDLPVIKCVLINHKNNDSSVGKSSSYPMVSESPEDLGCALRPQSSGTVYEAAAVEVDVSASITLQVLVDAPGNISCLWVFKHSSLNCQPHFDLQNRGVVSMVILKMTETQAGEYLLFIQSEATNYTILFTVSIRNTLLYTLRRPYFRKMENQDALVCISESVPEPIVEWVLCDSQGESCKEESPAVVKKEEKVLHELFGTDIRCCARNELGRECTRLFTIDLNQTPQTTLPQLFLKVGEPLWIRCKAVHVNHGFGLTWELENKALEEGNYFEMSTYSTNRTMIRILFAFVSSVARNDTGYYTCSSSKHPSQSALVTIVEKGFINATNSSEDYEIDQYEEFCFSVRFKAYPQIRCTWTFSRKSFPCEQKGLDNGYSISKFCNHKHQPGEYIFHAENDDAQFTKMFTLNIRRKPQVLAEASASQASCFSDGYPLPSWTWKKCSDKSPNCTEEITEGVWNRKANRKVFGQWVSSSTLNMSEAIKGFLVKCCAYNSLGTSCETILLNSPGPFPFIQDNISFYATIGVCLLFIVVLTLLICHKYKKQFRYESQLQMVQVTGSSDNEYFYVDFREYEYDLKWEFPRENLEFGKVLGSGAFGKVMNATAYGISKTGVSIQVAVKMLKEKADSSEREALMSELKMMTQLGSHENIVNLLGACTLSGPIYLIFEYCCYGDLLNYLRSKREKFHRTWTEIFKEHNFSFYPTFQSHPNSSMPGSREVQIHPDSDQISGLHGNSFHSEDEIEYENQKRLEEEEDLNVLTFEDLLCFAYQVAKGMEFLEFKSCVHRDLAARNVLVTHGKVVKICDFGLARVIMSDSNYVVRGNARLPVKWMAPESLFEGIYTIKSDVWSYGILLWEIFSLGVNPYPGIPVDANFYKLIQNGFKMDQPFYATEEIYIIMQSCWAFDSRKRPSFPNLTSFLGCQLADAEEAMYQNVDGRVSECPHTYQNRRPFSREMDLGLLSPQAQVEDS

[2] = molecular target: Mitogen-activated protein kinase kinase kinase 19 (Homo sapiens, UniProt Q56UN5); experiment: Selectivity interaction (NanoBRET assay (HEK293T cells)) EUB0000305b MAP3K19
[3] = molecular target: Serine/threonine-protein kinase 17A (Homo sapiens) (UniProt Q9UEE5); experiment: Selectivity interaction (KinomeScan (DiscoverX)) EUB0000305b STK17A; details: at 100 nM
[4] = molecular target: Phosphatidylinositol 4-phosphate 5-kinase type-1 gamma (Homo sapiens) (UniProt O60331); experiment: Selectivity interaction (KinomeScan (DiscoverX)) EUB0000698a PIP5K1C; details: at 10 µM
[5] = molecular target: Vascular endothelial growth factor receptor 3 (Homo sapiens) (UniProt P35916); experiment: Selectivity interaction (KinomeScan (DiscoverX)) EUB0000698a FLT4; details: at 10 µM
[6] = molecular target: cAMP-dependent protein kinase catalytic subunit alpha (Homo sapiens, UniProt P17612); experiment: Selectivity interaction (Kinase panel (University of Dundee)) EUB0000169b PRKACA; details: at 10 µM
[7] = molecular target: Protein kinase C alpha type (Homo sapiens) (UniProt P17252); experiment: Selectivity interaction (Kinase panel (University of Dundee)) EUB0000169b PRKCA; details: at 10 µM
[8] = molecular target: Ribosomal protein S6 kinase alpha-5 (Homo sapiens) (UniProt O75582); experiment: Selectivity interaction (Kinase panel (University of Dundee)) EUB0000169b RPS6KA5; details: at 10 µM
[9] = molecular target: T2, Serine/threonine-protein kinase TAO3 (Homo sapiens) (UniProt Q9H2K8); experiment: Selectivity interaction (KinomeScan (DiscoverX)) EUB0000178b TAOK3; details: at 1 µM
T2 sequence (whole entry): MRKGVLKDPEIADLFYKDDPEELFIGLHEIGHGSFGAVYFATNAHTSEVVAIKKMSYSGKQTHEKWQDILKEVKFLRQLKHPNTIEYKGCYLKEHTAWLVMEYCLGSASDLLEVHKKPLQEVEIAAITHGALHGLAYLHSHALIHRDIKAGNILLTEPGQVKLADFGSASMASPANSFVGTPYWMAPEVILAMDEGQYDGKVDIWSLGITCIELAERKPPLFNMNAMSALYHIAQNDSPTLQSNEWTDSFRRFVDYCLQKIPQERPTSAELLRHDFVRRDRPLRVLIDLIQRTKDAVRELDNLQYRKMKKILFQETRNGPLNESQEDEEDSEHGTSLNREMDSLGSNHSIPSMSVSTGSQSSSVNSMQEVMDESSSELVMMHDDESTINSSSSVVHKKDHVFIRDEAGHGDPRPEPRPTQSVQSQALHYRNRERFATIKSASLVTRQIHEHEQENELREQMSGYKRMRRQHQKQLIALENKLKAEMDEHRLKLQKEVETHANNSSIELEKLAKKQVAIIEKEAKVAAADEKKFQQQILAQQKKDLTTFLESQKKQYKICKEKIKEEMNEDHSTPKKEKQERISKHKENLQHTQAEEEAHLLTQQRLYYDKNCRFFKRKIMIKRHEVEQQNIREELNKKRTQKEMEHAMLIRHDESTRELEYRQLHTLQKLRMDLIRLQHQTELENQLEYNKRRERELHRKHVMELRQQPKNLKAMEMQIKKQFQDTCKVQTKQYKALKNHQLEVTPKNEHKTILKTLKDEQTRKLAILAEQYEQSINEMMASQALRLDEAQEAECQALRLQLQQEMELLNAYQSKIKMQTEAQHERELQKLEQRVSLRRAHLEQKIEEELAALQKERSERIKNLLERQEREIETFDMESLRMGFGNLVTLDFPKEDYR

[10] = molecular target: Serine/threonine-protein kinase 26 (Homo sapiens) (UniProt Q9P289); experiment: Selectivity interaction (KinomeScan (DiscoverX)) EUB0000178b STK26; details: at 1 µM
[11] = molecular target: Cyclin-dependent kinase 7 (Homo sapiens) (UniProt P50613); experiment: Selectivity interaction (KinomeScan (DiscoverX)) EUB0000702a CDK7; details: at 1 µM
[12] = molecular target: Serine/threonine-protein kinase TAO1 (Homo sapiens) (UniProt Q7L7X3); experiment: Selectivity interaction (KinomeScan (DiscoverX)) EUB0000702a TAOK1; details: at 1 µM
[13] = molecular target: Serine/threonine-protein kinase RIO1 (Homo sapiens) (UniProt Q9BRS2); experiment: Selectivity interaction (KinomeScan (DiscoverX)) EUB0000702a RIOK1; details: at 1 µM
[14] = molecular target: Tyrosine-protein kinase Lck (Homo sapiens, UniProt P06239); details: at 1 µM
[15] = molecular target: Serine/threonine-protein kinase 10 (Homo sapiens) (UniProt O94804); details: at 1 µM
[16] = molecular target: Macrophage-stimulating protein receptor (Homo sapiens) (UniProt Q04912); details: at 1 µM
Sequence of Macrophage-stimulating protein receptor (Homo sapiens) (Q04912 whole entry): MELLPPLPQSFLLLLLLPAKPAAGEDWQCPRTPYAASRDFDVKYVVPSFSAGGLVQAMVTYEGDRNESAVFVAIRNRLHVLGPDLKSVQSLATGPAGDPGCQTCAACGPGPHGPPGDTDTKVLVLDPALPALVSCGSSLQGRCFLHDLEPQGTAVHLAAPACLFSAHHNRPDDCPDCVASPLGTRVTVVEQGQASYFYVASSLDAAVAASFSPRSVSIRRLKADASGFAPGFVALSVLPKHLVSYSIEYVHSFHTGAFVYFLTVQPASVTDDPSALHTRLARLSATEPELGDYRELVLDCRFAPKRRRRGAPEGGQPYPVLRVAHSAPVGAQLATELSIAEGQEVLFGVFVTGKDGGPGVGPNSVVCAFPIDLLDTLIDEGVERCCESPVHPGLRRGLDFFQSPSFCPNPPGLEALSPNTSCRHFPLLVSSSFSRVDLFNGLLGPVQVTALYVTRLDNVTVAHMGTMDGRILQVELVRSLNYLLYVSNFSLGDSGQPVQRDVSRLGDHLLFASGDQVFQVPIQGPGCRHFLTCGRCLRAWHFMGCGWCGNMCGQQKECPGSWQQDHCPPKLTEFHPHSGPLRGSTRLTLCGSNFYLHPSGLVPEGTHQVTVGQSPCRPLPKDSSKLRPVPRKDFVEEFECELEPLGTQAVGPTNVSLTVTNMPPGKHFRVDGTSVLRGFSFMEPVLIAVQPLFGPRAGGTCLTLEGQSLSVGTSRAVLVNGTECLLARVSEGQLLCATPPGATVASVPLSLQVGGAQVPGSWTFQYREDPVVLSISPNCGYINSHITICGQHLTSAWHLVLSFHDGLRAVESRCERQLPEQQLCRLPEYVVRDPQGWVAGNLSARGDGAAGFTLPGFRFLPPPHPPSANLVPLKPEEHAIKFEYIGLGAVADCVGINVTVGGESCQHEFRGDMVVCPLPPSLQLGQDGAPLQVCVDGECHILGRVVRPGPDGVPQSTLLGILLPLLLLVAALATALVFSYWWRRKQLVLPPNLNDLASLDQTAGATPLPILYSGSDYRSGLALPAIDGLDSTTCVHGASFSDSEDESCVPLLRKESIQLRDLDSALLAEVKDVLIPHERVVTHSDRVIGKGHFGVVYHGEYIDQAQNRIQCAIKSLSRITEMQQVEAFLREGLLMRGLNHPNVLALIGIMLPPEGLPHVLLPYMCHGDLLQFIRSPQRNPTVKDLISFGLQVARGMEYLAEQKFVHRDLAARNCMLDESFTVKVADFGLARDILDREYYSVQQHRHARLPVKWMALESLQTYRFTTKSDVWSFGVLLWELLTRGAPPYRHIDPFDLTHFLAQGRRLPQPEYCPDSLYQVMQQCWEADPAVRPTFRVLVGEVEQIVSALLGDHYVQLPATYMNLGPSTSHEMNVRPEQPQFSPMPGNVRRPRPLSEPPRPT

Sequence of Ribosomal protein S6 kinase alpha-5 (Homo sapiens) (O75582 whole entry, looked up): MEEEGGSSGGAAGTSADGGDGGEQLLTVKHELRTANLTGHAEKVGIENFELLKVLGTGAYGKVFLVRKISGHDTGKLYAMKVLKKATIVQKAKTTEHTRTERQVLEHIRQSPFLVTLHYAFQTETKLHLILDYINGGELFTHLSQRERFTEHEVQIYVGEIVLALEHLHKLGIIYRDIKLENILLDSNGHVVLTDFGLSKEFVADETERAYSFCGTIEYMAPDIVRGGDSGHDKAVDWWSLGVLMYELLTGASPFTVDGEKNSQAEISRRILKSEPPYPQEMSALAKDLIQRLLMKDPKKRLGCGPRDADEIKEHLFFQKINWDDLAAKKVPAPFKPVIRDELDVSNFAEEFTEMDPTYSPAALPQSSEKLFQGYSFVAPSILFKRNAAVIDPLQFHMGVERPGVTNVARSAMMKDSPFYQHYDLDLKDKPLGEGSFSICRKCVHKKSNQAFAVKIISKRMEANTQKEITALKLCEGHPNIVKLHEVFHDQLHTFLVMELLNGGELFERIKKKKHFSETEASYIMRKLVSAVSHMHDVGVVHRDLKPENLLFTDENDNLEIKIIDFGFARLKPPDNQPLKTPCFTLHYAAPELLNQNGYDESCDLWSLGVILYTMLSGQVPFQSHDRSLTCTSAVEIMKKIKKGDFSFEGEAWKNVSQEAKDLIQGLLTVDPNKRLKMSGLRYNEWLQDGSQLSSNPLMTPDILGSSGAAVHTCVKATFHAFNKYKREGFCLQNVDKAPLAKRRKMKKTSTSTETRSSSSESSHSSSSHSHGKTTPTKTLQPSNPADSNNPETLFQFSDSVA
Sequence of Serine/threonine-protein kinase RIO1 (Homo sapiens) (Q9BRS2 whole entry): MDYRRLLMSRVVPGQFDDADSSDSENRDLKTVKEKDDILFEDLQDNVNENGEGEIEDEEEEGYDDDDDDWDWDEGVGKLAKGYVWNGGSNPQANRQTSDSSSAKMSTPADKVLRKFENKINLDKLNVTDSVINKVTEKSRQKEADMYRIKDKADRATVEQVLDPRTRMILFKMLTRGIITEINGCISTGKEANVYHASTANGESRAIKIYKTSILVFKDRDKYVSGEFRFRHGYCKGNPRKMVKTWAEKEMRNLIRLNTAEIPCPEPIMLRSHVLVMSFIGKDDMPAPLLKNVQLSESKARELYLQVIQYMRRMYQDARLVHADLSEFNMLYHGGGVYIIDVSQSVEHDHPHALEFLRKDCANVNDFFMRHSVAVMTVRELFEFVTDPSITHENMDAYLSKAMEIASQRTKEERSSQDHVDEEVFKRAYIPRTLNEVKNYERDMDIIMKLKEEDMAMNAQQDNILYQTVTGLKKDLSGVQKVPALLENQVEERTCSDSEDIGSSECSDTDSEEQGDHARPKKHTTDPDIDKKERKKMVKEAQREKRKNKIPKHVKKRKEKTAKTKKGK
Sequence of Tyrosine-protein kinase Lck (P06239 whole entry, looked up): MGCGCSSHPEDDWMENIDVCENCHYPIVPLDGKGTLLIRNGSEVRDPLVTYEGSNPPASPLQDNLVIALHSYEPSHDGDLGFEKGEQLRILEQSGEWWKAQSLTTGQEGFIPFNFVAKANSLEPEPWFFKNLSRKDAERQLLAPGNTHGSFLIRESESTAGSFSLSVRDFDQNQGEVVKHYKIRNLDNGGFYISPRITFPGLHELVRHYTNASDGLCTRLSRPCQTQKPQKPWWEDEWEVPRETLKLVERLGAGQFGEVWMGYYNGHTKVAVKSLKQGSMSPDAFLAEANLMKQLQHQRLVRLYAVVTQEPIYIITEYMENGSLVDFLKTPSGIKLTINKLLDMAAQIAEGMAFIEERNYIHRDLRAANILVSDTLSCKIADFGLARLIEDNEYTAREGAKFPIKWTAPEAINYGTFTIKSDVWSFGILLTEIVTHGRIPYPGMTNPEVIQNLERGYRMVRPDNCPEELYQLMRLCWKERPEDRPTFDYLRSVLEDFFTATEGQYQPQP
Sequence of Serine/threonine-protein kinase 17A (Homo sapiens) (Q9UEE5 whole entry): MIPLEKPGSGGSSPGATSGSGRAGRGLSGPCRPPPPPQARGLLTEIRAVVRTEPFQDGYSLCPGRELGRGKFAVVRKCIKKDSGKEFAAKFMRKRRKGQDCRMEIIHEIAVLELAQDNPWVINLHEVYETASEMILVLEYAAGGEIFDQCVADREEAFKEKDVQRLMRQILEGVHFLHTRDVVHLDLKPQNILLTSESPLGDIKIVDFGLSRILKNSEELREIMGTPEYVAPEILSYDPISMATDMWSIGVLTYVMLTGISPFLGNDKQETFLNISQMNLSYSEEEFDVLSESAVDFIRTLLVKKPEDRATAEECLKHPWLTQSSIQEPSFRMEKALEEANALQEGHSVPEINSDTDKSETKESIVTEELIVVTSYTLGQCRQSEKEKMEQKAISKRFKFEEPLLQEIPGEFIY
Sequence of Mitogen-activated protein kinase kinase kinase 19 (Q56UN5 whole entry): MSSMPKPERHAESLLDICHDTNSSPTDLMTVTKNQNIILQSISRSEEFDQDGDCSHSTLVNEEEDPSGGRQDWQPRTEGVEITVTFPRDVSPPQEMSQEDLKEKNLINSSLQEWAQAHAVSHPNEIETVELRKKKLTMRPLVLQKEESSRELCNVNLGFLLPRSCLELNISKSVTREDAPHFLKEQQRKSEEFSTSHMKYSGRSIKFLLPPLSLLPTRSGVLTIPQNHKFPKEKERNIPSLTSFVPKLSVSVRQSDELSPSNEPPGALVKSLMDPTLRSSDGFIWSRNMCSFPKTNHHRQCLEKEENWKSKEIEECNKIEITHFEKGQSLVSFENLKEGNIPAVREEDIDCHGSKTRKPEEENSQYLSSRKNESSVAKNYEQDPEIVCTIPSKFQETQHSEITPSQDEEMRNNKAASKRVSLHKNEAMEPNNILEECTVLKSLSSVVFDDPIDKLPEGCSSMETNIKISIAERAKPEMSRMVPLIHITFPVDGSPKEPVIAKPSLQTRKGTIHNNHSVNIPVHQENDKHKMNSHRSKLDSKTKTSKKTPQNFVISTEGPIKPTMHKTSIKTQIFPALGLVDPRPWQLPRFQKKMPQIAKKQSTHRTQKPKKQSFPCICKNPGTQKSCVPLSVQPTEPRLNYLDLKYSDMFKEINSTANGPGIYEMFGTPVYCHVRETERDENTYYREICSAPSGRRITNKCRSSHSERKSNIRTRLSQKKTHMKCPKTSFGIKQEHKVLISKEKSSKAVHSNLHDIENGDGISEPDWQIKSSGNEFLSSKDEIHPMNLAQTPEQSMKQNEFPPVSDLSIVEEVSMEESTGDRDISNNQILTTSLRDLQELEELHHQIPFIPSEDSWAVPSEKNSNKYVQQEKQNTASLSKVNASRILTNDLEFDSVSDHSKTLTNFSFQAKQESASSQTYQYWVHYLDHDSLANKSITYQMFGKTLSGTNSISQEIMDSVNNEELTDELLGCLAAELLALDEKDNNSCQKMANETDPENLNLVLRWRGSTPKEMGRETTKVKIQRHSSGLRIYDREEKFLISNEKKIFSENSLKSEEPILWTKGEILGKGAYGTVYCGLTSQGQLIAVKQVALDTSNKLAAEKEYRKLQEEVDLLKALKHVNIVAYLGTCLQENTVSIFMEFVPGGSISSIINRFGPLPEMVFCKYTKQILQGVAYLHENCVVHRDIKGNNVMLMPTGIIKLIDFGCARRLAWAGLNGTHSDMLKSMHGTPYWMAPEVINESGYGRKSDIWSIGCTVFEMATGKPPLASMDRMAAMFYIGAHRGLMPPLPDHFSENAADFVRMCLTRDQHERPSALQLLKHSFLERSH

- % of control [1]: 32%
- IC50 [2]: > 20 µM
- % of control [3]: 40%
Compound: C[C@H](c1ccnc(Nc2nc3ccc(-c4cc(N(C)C)ncn4)cc3[nH]2)c1)N1CCN(C(=O)CC(F)(F)F)CC1 [BAY-985]

- % of control [4]: 10%
- % of control [5]: 1.4%
Compound: COc1cc2ncn(-c3cc(OCc4ccccc4C(F)(F)F)c(C(N)=O)s3)c2cc1OC [GW843682X]

- % of control [6]: 100%
- % of control [7]: 103%
- % of control [8]: 89%
Compound: CC[C@@H]1C(=O)N(C)c2cnc(Nc3ccc(C(=O)NC4CCN(C)CC4)cc3OC)nc2N1C1CCCC1

- % of control [9]: 4.5%
- % of control [10]: 0.6%
Compound: CN1C(=O)c2sccc2N(C)c2nc(Nc3ccc(S(N)(=O)=O)cc3)ncc21

- % of control [11]: 3.5%
- % of control [12]: 3.7%
- % of control [13]: 9.7%
Compound: CN(c1ccnc(CNc2nc(Nc3ccc4c(c3)CC(=O)N4)ncc2C(F)(F)F)n1)S(C)(=O)=O [PF-00911705]

Compound: CCOc1cn(-c2ccc(F)cc2C)nc1C(=O)Nc1ccc(Oc2ccnc3cc(OC)c(OC)cc23)c(F)c1
- % of control [14]: < 10%
- % of control [15]: < 10%
- % of control [16]: < 10%
